From publication PMC11414412, “Design and synthesis new indole-based aromatase/iNOS inhibitors with apoptotic antiproliferative activity” (Frontiers in Chemistry, 2024)

Assays:
[1] = molecular target: T1, eNOS (Bos taurus, UniProt P29473); test: NOS inhibition assay (L-citrulline, fluorometric detection), eNOS; type: biochemical, bovine; details: for Inhibition (%) eNOS / inhibition at 10 µM: compound at 10 µM
T1 construct: purchased Cayman Chemical (Ann Arbor, USA)
Experimental: The investigated compounds were tested at 1 µM against the iNOS and 10 µM against the eNOS to determine their isoform selectivity. Because of its critical role in cardiovasculature, inhibiting the constitutive enzyme eNOS should be avoided.
Refer to Supplementary Appendix SA1 for more details.
4.2.4. NOS inhibition assay
Recombinant human iNOS was purchased from Enzo Life Sciences, Inc. (New York, USA).
Recombinant bovine eNOS was purchased from Cayman Chemical (Ann Arbor, USA). To measure iNOS activity, 10 μL of enzyme stock solution were added to 80 μL of 2-[4-(2-hydroxyethyl) piperazin-1-yl]ethanesulfonic acid (HEPES) buffer pH = 7.4, 100 mM, containing 0.1 mM CaCl2, 1 mM D,L-dithiothreitol (DTT), 0.5 mg/mL BSA, 10 μM flavin mononucleotide (FMN), 10 μM flavin adenine dinucleotide (FAD), 30 μM tetrahydrobiopterin (BH4), 10 μg/mL calmodulin (CaM), 10 μM L-Arg. For the eNOS activity evaluation, 25 μL of the enzyme stock solution were added to 65 μL of HEPES buffer containing 2 mM CaCl2 and the same cofactors […]
μM) were added to the enzyme assay solution, followed by pre -incubation of 15 min at 37 ◦C.
Each reaction was initiated by the addition of 10 μL of NADPH 7.5 mM, carried out at 37 ◦C for 30 min, and stopped by adding 500 μL of ice -cold CH3CN. The mixture was brought to dryness under vacuum and eventually stored at – 20 ◦C, before the HPLC analysis. […]

[2] = test system: four human cancer cell lines (A-549, MCF-7, Panc-1, HT-29); test: Antiproliferative assay, average over four cancer cell lines (GI50); type: cell-based; details: for IC50: average of IC50 against A-549, MCF-7, Panc-1, HT-29
Experimental: See Supplementary Appendix SA1 for more details.
(§1) 4.2.2. Assay for antiproliferative effect
To explore the antiproliferative potential of compounds propidium iodide fluorescence assay was performed using different cell lines such as Panc-1 (pancreas cancer cell line), MCF-7 (breast […]
respectively. To calculate the total nuclear DNA, a fluorescent dye (propidium iodide, PI) is used which can attach to the DNA, thus offering a quick and precise technique. PI cannot pass through the cell membrane and its signal intensity can be considered as directly proportional to quantity of cellular DNA. Cells whose cell membranes are damaged or have changed permeability are counted as dead ones. The assay was performed by seeding the cells of different cell lines at a density of […]
The medium was removed; the compounds were added to the plates at 10 μM concentrations (in 0.1% DMSO) in triplicates, followed by incubation for 48h. DMSO (0.1%) was used as control. After incubation, medium was removed followed by the addition of PI (25 μl, 50μg/mL in water/medium) to each well of the plates. At - 80 °C, the plates were allowed to freeze for 24 h, followed by thawing at 25 °C. A fluorometer (Polar-Star BMG Tech) was used to record the readings at excitation and emission wavelengths of 530 and 620 nm for each well. The percentage cytotoxicity of compounds was calculated using […]
Where ATC= Absorbance of treated cells and AC= Absorbance of control. […]
positive control in the assay.

[3] = test system: Panc-1 cells; test: Antiproliferative assay, Panc-1; type: cell-based; details: Homo sapiens; Panc-1 pancreatic cancer cell line; read-out: Antiproliferative activity IC50 ± SEM, Panc-1
Experimental: as §1
To explore the antiproliferative potential of compounds propidium iodide fluorescence assay was performed using different cell lines such as Panc-1 (pancreas cancer cell line), MCF-7 (breast cancer cell line), HT-29 (colon cancer cell line) and A-549 (epithelial cancer cell line), respectively. To calculate the total nuclear DNA, a fluorescent dye (propidium iodide, PI) is used which can attach to the DNA, thus offering a quick and precise technique. PI cannot pass through the cell membrane and its signal intensity can be considered as directly proportional to quantity of cellular DNA. Cells whose cell membranes are damaged or have changed permeability are counted as dead ones. The assay was performed by seeding the cells of different cell lines at a density of 3000-7500 cells/well (in200μl medium) in culture plates followed by incubation for 24h at 37 °C in humidified 5%CO2/95% air atmospheric conditions. The medium was removed; the compounds were added to the plates at 10 μM concentrations (in 0.1% DMSO) in triplicates, followed by incubation for 48h. DMSO (0.1%) was used as control. After incubation, medium was removed followed by the addition of PI (25 μl, 50μg/mL in water/medium) to each well of the plates. At - 80 °C, the plates were allowed to freeze for 24 h, followed by thawing at 25 °C. A fluorometer (Polar-Star BMG Tech) was used to record the readings at excitation and emission wavelengths of 530 and 620 nm for each well. The percentage cytotoxicity of compounds was calculated using […]
Where ATC= Absorbance of treated cells and AC= Absorbance of control. Erlotinib was used as positive control in the assay.

SMILES | Inhibition (%) eNOS [1] | inhibition at 10 µM [1] [%] | Fold more effective than compound 11 (GI50) [2] | IC50 ([2]; Homo sapiens) [nM] | IC50 [3] [nM] | IC50 [1] [nM] | Fold potency relative to Erlotinib (GI50) ([2]; GI50 24 nM vs Erlotinib […] nM) [fold] | IC50 [2] [nM] | IC50 eNOS [1]
CCc1c2cc(Cl)ccc2n2c(C)c(C(=O)NCc3ccccc3)[nH]c(=O)c12 [Compound 7, N-benzyl-8-chloro-10-ethyl-4-methyl-1-oxo-1,2-dihydropyrazino [1,2-a]indole-3-carboxamide] | moderate inhibitory action | 32 ± 2 | at least 1.4 fold | 29 | 28 ± 2 | – | – | – | –
CCc1c2cc(Cl)ccc2n2c(C)c(C(=O)OCc3ccccc3)[nH]c(=O)c12 [Compound 5, benzyl 8-chloro-10-ethyl-4-methyl-1-oxo-1,2-dihydropyrazino [1,2-a]indole-3-carboxylate] | – | 49 ± 2 | – | 32 | 32 ± 3 | – | – | – | –
CCc1c2cc(Cl)ccc2n2cc(Cc3ccccc3)n(C)c(=O)c12 [Compound 12, 3-Benzyl-8-chloro-10-ethyl-2-methylpyrazino[1,2-a]indol-1(2H)-one] | completely inactive | – | – | 25 | 24 ± 2 | > 50000 | 1.4 | 24 | –
CCc1c2cc(Cl)ccc2n2cc(-c3ccccc3)[nH]c(=O)c12 [Compound 16, 8-Chloro-10-ethyl-3-phenylpyrazino [1,2-a]indol-1(2H)-one] | completely inactive | – | at least 1.4 fold | 28 | 25 ± 2 | > 50000 | – | 26 | inactive
